Data taken from ChEMBL document CHEMBL3585308, “Discovery and Modification of in Vivo Active Nrf2 Activators with 1,2,4-Oxadiazole Core: Hits Identification and Structure-Activity Relationship Study” (J Med Chem, 2015).

What was measured:
Format in all cases: cell-based
[1] = molecular target: T1, Nuclear factor erythroid 2-related factor 2 (Homo sapiens) (UniProt Q16236); test: Activation of Nrf2 in human HepG2-ARE-C8 cells assessed as upregulation of ARE level at 80 uM after 12 hrs by luciferase reporter gene assay relative to control
T1 sequence (whole entry): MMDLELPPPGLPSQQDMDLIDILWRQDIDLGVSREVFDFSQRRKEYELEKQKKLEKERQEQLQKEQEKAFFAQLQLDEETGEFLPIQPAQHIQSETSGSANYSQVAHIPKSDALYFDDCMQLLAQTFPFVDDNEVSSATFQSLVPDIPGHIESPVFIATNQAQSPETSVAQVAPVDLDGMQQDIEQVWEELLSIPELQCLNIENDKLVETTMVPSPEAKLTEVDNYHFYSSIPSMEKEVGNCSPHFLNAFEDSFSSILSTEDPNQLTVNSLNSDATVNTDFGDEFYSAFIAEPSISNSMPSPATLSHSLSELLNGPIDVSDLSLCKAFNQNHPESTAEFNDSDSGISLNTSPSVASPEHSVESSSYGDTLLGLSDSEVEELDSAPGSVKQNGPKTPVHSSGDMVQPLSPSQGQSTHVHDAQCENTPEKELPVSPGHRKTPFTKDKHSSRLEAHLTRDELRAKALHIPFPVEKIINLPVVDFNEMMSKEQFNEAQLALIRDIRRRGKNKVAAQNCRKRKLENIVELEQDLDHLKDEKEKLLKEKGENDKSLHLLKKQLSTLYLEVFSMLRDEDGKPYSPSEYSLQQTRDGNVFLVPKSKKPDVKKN

[2] = molecular target: T1, Nuclear factor erythroid 2-related factor 2 (Homo sapiens); test: Activation of Nrf2 in human HepG2-ARE-C8 cells assessed as upregulation of ARE level at 0.2 uM after 12 hrs by luciferase reporter gene assay relative to control
[3] = molecular target: T1, Nuclear factor erythroid 2-related factor 2 (Homo sapiens); test: Activation of Nrf2 in human HepG2-ARE-C8 cells assessed as upregulation of ARE level at 160 uM after 12 hrs by luciferase reporter gene assay relative to control
[4] = molecular target: T1, Nuclear factor erythroid 2-related factor 2 (Homo sapiens); test: Activation of Nrf2 in human HepG2-ARE-C8 cells assessed as upregulation of ARE level at 2 uM after 12 hrs by luciferase reporter gene assay relative to control
[5] = molecular target: T1, Nuclear factor erythroid 2-related factor 2 (Homo sapiens); test: Activation of Nrf2 in human HepG2-ARE-C8 cells assessed as upregulation of ARE level at 20 uM after 12 hrs by luciferase reporter gene assay relative to control
[6] = molecular target: T1, Nuclear factor erythroid 2-related factor 2 (Homo sapiens); test: Activation of Nrf2 in human HepG2-ARE-C8 cells assessed as upregulation of ARE level at 0.02 uM after 12 hrs by luciferase reporter gene assay relative to control
[7] = molecular target: T1, Nuclear factor erythroid 2-related factor 2 (Homo sapiens); test: Activation of Nrf2 in human HepG2-ARE-C8 cells assessed as upregulation of ARE level at 40 uM after 12 hrs by luciferase reporter gene assay relative to control
HCT-116 = test: Cytotoxicity against human HCT116 cells assessed as reduction of cell proliferation at 80 uM after 24 hrs by MTT assay; conditions: hct-116, 24 h

| fold change (FC) [1] | fold change (FC) [2] | fold change (FC) [3] | fold change (FC) [4] | fold change (FC) [5] | fold change (FC) [6] | fold change (FC) [7] | SMILES | Activity (HCT-116) |
| --- | --- | --- | --- | --- | --- | --- | --- | --- |
| 4.92 | 2.72 | 5.52 | 3.27 | 9.84 | 1.43 | 13 | COc1ccc(-c2nc(-c3ccc4nc[nH]c4c3)no2)cc1 | Non-toxic |
| 4.35 | 1.59 | 1.46 | 2.84 | 8.57 | 1.25 | 11.6 | COc1ccc(-c2nc(-c3ccc4nc[nH]c4c3)no2)c(OC)c1 | Non-toxic |
| 7.79 | 1.73 | 10 | 2.25 | 6.07 | 1.48 | 6.16 | CCCc1ccc(-c2nc(-c3ccc4nc[nH]c4c3)no2)cc1 | Non-toxic |
| 5.99 | 2.54 | 10.6 | 4.27 | 4.36 | 1.91 | 4.95 | c1cc(-c2nc(-c3ccc4nc[nH]c4c3)no2)ccn1 | Non-toxic |
| 16.5 | 1.56 | 11.5 | 4.74 | 11.6 | 1.43 | 21.8 | O=[N+]([O-])c1cccc(-c2nc(-c3ccc4nc[nH]c4c3)no2)c1 | Non-toxic |
| 3.7 | 2.96 | 5.2 | 3.21 | 4.48 | 1.7 | 4.24 | COc1ccc(OC)c(-c2nc(-c3ccc4nc[nH]c4c3)no2)c1 | Non-toxic |
| 3.45 | 8.04 | 2.94 | 13.9 | 10.5 | 2.56 | 5.65 | FC(F)(F)c1cccc(-c2nc(-c3ccc4nc[nH]c4c3)no2)c1 | Non-toxic |
| 6.61 | 2.04 | 7.09 | 4.35 | 20.5 | 1.61 | 16.9 | c1ccc2nc(-c3nc(-c4ccc5nc[nH]c5c4)no3)ccc2c1 | Non-toxic |
| 4.05 | 1.71 | 3.93 | 2.44 | 8.62 | 1.68 | 4.18 | Oc1cccc(-c2nc(-c3ccc4nc[nH]c4c3)no2)c1 | Non-toxic |
| 12.4 | 1.95 | 8.38 | 3.16 | 12.4 | 1.79 | 14.4 | COc1cccc(-c2nc(-c3ccc4nc[nH]c4c3)no2)c1 | Non-toxic |
| 2.65 | 3.42 | 2.55 | 5.09 | 9.49 | 1.06 | 7.51 | c1ccc(-c2nc(-c3ccc4nc[nH]c4c3)no2)nc1 | Non-toxic |
| 11.6 | 1.5 | 8.88 | 1.77 | 10.2 | 1.22 | 11 | c1cc2ccc(-c3nc(-c4ccc5nc[nH]c5c4)no3)cc2[nH]1 | Non-toxic |
| 18.5 | 1.59 | 7.85 | 3.52 | 10.9 | 1.4 | 10.8 | Cc1ccccc1-c1nc(-c2ccc3nc[nH]c3c2)no1 | Non-toxic |
| 14.8 | 2.08 | 12 | 10.9 | 30.8 | 1.55 | 37.6 | CCCCc1ccc(-c2nc(-c3ccc4nc[nH]c4c3)no2)cc1 | Non-toxic |
| 15 | 1.54 | 11 | 1.52 | 2 | 1.18 | 10.7 | c1ccc(-c2ccc(-c3nc(-c4ccc5nc[nH]c5c4)no3)cc2)cc1 | Non-toxic |
| 17.3 | 1.94 | 8.99 | 4.84 | 14.2 | 1.44 | 10.4 | Cc1cccc(-c2nc(-c3ccc4nc[nH]c4c3)no2)c1 | Non-toxic |
| 4.82 | 1.75 | 3.69 | 2.56 | 9.34 | 1.37 | 5.88 | CCc1ccc(-c2nc(-c3ccc4nc[nH]c4c3)no2)cc1 | Non-toxic |
| 1.34 | 1.54 | 1.17 | 1.53 | 2.67 | 1.72 | 2.75 | Oc1ccccc1-c1nc(-c2ccc3nc[nH]c3c2)no1 | Non-toxic |
| 8.81 | 1.65 | 7.35 | 2.19 | 6.23 | 1.56 | 8.67 | Oc1ccc(-c2nc(-c3ccc4nc[nH]c4c3)no2)cc1 | Non-toxic |
| 3.16 | 1.36 | 8.05 | 1.42 | 0.87 | 1.26 | 0.91 | N#Cc1cccc(-c2nc(-c3ccc4nc[nH]c4c3)no2)c1 | Non-toxic |
| 13.9 | 2.24 | 22.5 | 2.41 | 3.23 | 1.31 | 3.24 | COc1cc(-c2nc(-c3ccc4nc[nH]c4c3)no2)cc(OC)c1OC | Non-toxic |
| 12.7 | 3.29 | 9.22 | 7.78 | 20.6 | 2.11 | 16.6 | Cc1ccc(-c2nc(-c3ccc4nc[nH]c4c3)no2)cc1 | Non-toxic |
|  | 1 |  | 1.1 | 1.65 | 0.82 | 2.97 | COC(=O)/C=C/C(=O)OC |  |
| 3.33 | 3.41 | 1.75 | 18.2 | 17.4 | 2.03 | 8.41 | Cn1cnc2ccc(-c3noc(-c4ccccc4)n3)cc21 | Non-toxic |
| 5.27 | 1.25 | 8.46 | 1.24 | 1.41 | 1.18 | 2.14 | CC(C)(C)C1=CC(=O)C=CC1=O |  |
| 8.46 | 1.39 | 5.85 | 1.62 | 5.96 | 1.24 | 10.7 | COc1ccccc1-c1nc(-c2ccc3nc[nH]c3c2)no1 | Non-toxic |
| 6.56 | 2.85 | 1.13 | 6.91 | 17.7 | 1.35 | 21.6 | FC(F)(F)c1ccc(-c2nc(-c3ccc4nc[nH]c4c3)no2)cc1 | Non-toxic |
| 10 | 1.25 | 12.7 | 1.35 | 8.12 | 1.22 | 11.9 | N#Cc1ccc(-c2nc(-c3ccc4nc[nH]c4c3)no2)cc1 | Non-toxic |
